Assay results as given in patent US20090137625A1, “Novel Enantiomers and Their Use as Monoamine Neurotransmitter Re-Uptake Inhibitors” (priority 2005, published 2009).
pIC50: −log10 of the molar value. Where a name gives a salt, the structure may show the parent alone. Read-outs that look alike come from different tables or passages of the source.

How the values were obtained:
[1] = target: T1, DA-uptake (reuptake of dopamine in synaptosomes) (Rattus norvegicus, UniProt P23977); experiment: Inhibition of dopamine (DA) reuptake in synaptosomes; type: biochemical
T1 construct: in synaptosomes as described in WO 97/16451; from tissue

[2] = target: T2, NA-uptake (reuptake of noradrenaline in synaptosomes) (Rattus norvegicus, UniProt Q9WTR4); experiment: Inhibition of noradrenaline (NA) reuptake in synaptosomes; type: biochemical
T2 construct: in synaptosomes as described in WO 97/16451; from tissue

[3] = target: T3, 5-HT-uptake (reuptake of serotonine in synaptosomes) (Rattus norvegicus, UniProt P31652); experiment: Inhibition of serotonine (5-HT) reuptake in synaptosomes; type: biochemical
T3 construct: in synaptosomes as described in WO 97/16451; from tissue

[4] = synaptosomes, 3H-DA, read-out: DA-uptake IC50
[5] = synaptosomes, 3H-NA, read-out: NA-uptake IC50
[6] = synaptosomes, 3H-5-HT, read-out: 5-HT-uptake IC50

T2 sequence (Q9WTR4 1-597): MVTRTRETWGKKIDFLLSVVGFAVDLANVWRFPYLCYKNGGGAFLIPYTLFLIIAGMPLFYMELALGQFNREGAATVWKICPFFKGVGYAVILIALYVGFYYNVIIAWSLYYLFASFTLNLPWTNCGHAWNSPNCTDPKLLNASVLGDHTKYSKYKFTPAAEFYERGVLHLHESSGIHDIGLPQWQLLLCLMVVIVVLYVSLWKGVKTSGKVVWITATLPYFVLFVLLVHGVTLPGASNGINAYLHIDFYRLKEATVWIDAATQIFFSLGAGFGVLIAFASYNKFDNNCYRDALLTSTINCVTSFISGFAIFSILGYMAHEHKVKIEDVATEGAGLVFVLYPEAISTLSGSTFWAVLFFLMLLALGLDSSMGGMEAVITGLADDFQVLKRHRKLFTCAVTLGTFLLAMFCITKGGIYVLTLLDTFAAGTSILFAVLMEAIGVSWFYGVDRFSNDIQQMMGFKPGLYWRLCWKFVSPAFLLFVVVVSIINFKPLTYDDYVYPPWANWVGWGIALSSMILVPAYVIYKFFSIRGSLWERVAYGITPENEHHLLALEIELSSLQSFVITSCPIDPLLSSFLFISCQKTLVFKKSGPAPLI
T3 sequence (P31652 whole entry): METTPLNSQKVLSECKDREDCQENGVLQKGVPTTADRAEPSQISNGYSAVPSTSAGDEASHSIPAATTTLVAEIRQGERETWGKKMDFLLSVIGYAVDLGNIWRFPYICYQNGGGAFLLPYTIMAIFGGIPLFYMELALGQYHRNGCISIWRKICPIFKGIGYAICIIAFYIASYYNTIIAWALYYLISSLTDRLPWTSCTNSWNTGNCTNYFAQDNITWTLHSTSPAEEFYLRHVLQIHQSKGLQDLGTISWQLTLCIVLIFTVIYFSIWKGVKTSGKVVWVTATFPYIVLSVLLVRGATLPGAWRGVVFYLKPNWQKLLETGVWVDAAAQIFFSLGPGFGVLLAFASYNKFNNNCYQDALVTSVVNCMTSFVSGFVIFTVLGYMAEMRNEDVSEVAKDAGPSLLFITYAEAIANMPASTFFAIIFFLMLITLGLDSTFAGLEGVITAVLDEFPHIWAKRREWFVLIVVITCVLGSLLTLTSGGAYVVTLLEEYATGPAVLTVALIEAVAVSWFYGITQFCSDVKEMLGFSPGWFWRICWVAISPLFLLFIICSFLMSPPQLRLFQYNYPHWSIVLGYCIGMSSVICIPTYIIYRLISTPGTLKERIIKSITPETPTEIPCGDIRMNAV
T1 sequence (P23977 whole entry): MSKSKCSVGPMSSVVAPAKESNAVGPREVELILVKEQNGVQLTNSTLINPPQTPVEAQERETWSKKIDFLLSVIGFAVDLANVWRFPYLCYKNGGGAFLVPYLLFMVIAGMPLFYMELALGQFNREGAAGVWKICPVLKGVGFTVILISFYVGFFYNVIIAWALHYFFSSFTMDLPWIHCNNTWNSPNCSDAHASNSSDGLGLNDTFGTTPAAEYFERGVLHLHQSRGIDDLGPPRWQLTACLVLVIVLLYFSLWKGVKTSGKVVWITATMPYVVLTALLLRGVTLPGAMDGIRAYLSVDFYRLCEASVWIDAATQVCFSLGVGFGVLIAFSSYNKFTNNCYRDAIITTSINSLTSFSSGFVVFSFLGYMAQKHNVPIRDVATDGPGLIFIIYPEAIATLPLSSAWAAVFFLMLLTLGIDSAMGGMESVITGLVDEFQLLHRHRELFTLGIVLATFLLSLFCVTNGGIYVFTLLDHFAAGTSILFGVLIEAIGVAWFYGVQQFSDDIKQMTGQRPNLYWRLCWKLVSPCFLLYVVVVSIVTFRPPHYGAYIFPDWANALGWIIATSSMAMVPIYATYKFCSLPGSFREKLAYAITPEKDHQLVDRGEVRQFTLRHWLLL

SMILES: C1=C(c2ccc3ccccc3c2)CC2CCC1N2 (single isomer, unassigned; (+)) (as salt: tartaric acid salt) [1st compound of method D, (+)-3-Naphthalen-2-yl-8-aza-bicyclo[3.2.1]oct-2-ene]
- melting point: 183 to 189 °C

SMILES: Clc1ccc(C2=CC3CCC(C2)N3)cc1 (single isomer, unassigned; (+)) [1st compound of method A, (+)-3-(4-Chlorophenyl)-8-H-8-aza-bicyclo[3.2.1]oct-2-ene]
- pIC50 [1, 4]: 6.59
- pIC50 [2, 5]: 7.55
- pIC50 [3, 6]: 8.00

SMILES: C1=C(c2ccc3ccccc3c2)CC2CCC1N2 (single isomer, unassigned; (+)) [1st compound of method D, (+)-3-Naphthalen-2-yl-8-aza-bicyclo[3.2.1]oct-2-ene]
- pIC50 [1]: 7.24
- pIC50 [2]: 7.89
- pIC50 [3]: 9.47

SMILES: CN1C2C=C(c3ccc4ccccc4c3)CC1CC2 (single isomer, unassigned; (-)) (as salt: hydrochloric acid salt) [1st compound of method E, (−)-8-Methyl-3-(naphthalen-2-yl)-8-aza-bicyclo[3.2.1]oct-2-ene]
- melting point: 265 °C

SMILES: CN1C2C=C(c3ccc4ccccc4c3)CC1CC2 (single isomer, unassigned; (-)) [1st compound of method E, (−)-8-Methyl-3-(naphthalen-2-yl)-8-aza-bicyclo[3.2.1]oct-2-ene]
- pIC50 [1, 4]: 7.47
- pIC50 [2, 5]: 7.74
- pIC50 [3, 6]: 9.64
